The source of these data is ChEMBL document CHEMBL1144152, “Oceanapiside, an antifungal bis-alpha,omega-amino alcohol glycoside from the marine sponge Oceanapia phillipensis” (1999).

In experiment [1] the test system is Candida albicans. Description: Antifungal activity against Candida albicans ATCC 14503. In kind it is functional, organism-based.
For experiment [2], the system named is Candida albicans. Description: Antifungal activity against fluconazole-resistant Candida albicans 96-489. In kind it is functional, organism-based.
Experiment [3] deals with Candida albicans. The experiment can be described thus: Antifungal activity against fluconazole-resistant Candida albicans UCD-FR1. In kind it is functional, organism-based.
Another experiment relates to Pichia kudriavzevii. The experiment can be described thus: Antifungal activity against Candida krusei. In kind it is functional, organism-based.
The next experiment deals with Nakaseomyces glabratus. The experiment can be described thus: Antifungal activity against fluconazole-resistant Candida glabrata by broth dilution method. It counts as functional.

Broadly, the MIC is the lowest concentration found to suppress growth. A high value points to a less susceptible organism.

The structures appear in SMILES notation. In brackets after ≈: the same amount, converted by molar mass. Activity calls are given as the source filed them. The rule behind the calls is not given here.

`C[C@@H](N)[C@H](O)CCCCCCCCCCCCCCC(=O)CCCCCCC[C@@H](O[C@@H]1O[C@H](CO)[C@@H](O)[C@H](O)[C@H]1O)[C@@H](N)CO`: the result in the experiment on Candida albicans [1], in the experiment on Candida albicans [2], in the experiment on Candida albicans [3] and in the experiment with Pichia kudriavzevii was inactive. The same molecule gave an MIC against Nakaseomyces glabratus of 10 µg/mL (≈ 15.4 µM).
On to `C[C@@H]1[C@H](O)[C@@H](C)/C=C/C=C/C=C/C=C/C=C/C=C/C=C/[C@H](O[C@@H]2O[C@H](C)[C@@H](O)[C@H](N)[C@@H]2O)C[C@@H]2O[C@](O)(C[C@@H](O)C[C@@H](O)[C@H](O)CC[C@@H](O)C[C@@H](O)CC(=O)O[C@H]1C)C[C@H](O)[C@H]2C(=O)O` [AMPHOTERICIN B], for which, in the experiment with Nakaseomyces glabratus, it took 1 µg/mL (≈ 1.08 µM) to inhibit growth (MIC).
Still for that read-out and setting: then `C[C@@H](N)[C@H](O)CCCCCCCCCCCCCCC(=O)CCCCCCC[C@@H](O)[C@@H](N)CO`, with 3 µg/mL (≈ 6.16 µM).
